Assay results as given in ChEMBL document CHEMBL5346919, “Toward anthelmintic drug candidates for toxocariasis: Challenges and recent developments” (2023).
pEC50: −log10 of the molar value.

Columns and labels:
Type in all cases: functional
Toxocara vitulorum [1] = experiment: Antiparasitic activity against Toxocara vitulorum infected in assessed as decrease in number of larvae in lung at 40 mg/kg,po measured after 7 days; conditions: 168 h, time 7 day
Toxocara vitulorum [2] = experiment: Antiparasitic activity against Toxocara vitulorum infected in assessed as decrease in number of larvae in liver at 40 mg/kg,po measured after 7 days; conditions: 168 h, time 7 day
Toxocara canis [3] = experiment: Antiparasitic activity against Toxocara canis assessed as relative mobility at 1 to 10000 uM measured after 24 hrs by; conditions: dose 1-10000 µM, read-out: ED50 (the source's name)
Toxocara canis [4] = experiment: Antiparasitic activity against Toxocara canis infected in mouse assessed as worm burden reduction in muscles at 25 mg/kg,sc administered twice a day for 5 days relative to control; design: scale not given: the % may be the effect or the level left; conditions: time 5 day
Toxocara canis [5] = experiment: Antiparasitic activity against Toxocara canis infected in mouse assessed as worm burden reduction in brain at 25 mg/kg,sc administered twice a day for 5 days relative to control; design: scale not given: the % may be the effect or the level left; conditions: time 5 day
Toxocara canis [6] = experiment: Antiparasitic activity against Toxocara canis infected in mouse assessed as worm burden reduction in muscles at 25 mg/kg,po or sc administered twice a day for 5 days relative to control; design: scale not given: the % may be the effect or the level left; conditions: time 5 day
Toxocara canis [7] = experiment: Antiparasitic activity against Toxocara canis j2 larvae assessed as relative mobility at 18 uM measured after 48 hrs
Toxocara canis [8] = experiment: Antiparasitic activity against Toxocara canis assessed as relative mobility
Toxocara canis [9] = experiment: Antiparasitic activity against Toxocara canis assessed as larvicidal activity at 1100 uM measured after 48 hrs relative to control
Toxocara canis [10] = experiment: Antiparasitic activity against Toxocara canis assessed as larvicidal activity at 192 uM measured after 48 hrs relative to control
Toxocara canis [11] = experiment: Antiparasitic activity against Toxocara canis infected in dog assessed as egg burden reduction at 50 mg/kg,po measured after 3 days; design: scale not given: the % may be the effect or the level left; conditions: time 3 day
Toxocara cati [12] = experiment: Antiparasitic activity against Toxocara cati infected in cat assessed as worm burden reduction at 50 mg/kg, po measured after 2 days; design: scale not given: the % may be the effect or the level left; conditions: time 2 day
Toxocara cati [13] = experiment: Antiparasitic activity against Toxocara cati infected in cat assessed as worm burden reduction at 25 mg/kg,po measured after 3 days; design: scale not given: the % may be the effect or the level left; conditions: time 3 day
Toxocara canis [14] = experiment: Antiparasitic activity against Toxocara canis infected in mouse assessed as worm burden reduction in muscles at 350 mg/kg,sc administered twice a day relative to control; design: scale not given: the % may be the effect or the level left
Toxocara canis [15] = experiment: Antiparasitic activity against Toxocara canis infected in mouse assessed as worm burden reduction in brain at 150 mg/kg,sc administered twice a day relative to control; design: scale not given: the % may be the effect or the level left
Toxocara canis [16] = experiment: Antiparasitic activity against Toxocara canis infected in mouse assessed as worm burden reduction in brain at 25 mg/kg,po or sc administered twice a day for 5 days relative to control; design: scale not given: the % may be the effect or the level left; conditions: time 5 day
Toxocara canis [17] = experiment: Antiparasitic activity against Toxocara canis infected in mouse assessed as worm burden reduction in brain at 100 mg/kg,po administered twice a day for 5 days relative to control; design: scale not given: the % may be the effect or the level left; conditions: time 5 day

For `Cc1ccc(C(C)C)c(O)c1` [THYMOL], the inhibition in vivo at 40 mg/kg (Toxocara vitulorum [1]) was 66.7% and the inhibition in vivo at 40 mg/kg (Toxocara vitulorum [2]) was 58.5%.
Work on `COc1ccc2c(c1OC)CN(C)CCc1cc3c(cc1C(=O)C2)OCO3` [ALLOCRYPTOPINE] yielded a pEC50 (Toxocara canis [3]) of 3.46.
Work on `COc1cc2c(cc1OC)-c1c(C)c3ccc(OC)c(OC)c3c[n+]1CC2` [DEHYDROCORYDALINE] yielded a pEC50 (Toxocara canis [3]) of 3.53.
`COC(=O)Nc1nc2cc(Sc3ccccc3)ccc2[nH]1` [FENBENDAZOLE] gave an Activity (Toxocara canis [4]) of 55.7%, an Activity (Toxocara canis [5]) of 44.7% and an Activity (Toxocara canis [6]) of 89.5%.
Work on `COc1ccc(Cc2nccc3cc(OC)c(OC)cc23)cc1OC` [PAPAVERINE] yielded a pEC50 (Toxocara canis [3]) of 3.60.
`CCCSc1ccc2c(c1)nc(NC(=O)OC)n2COC(C)=O` was tested, and the Activity (Toxocara canis [7]) was 30%.
`OCCCC1NCCc2c1[nH]c1ccccc21` (stereo not given) gave an ED (Toxocara canis [8]) of 59.9 µM.
In the case of `CC1(C)CCC2=C(O1)C1(CO1)C1=C(CCCC1)C2=O` (stereo not given), the Activity (Toxocara canis [9]) was 100%.
Compound `C=CCOC1=CC(=O)c2ccccc2C12CO2` (stereo not given) has an Activity (Toxocara canis [9]) of 100%.
In the case of `CC1(C)CC2=C(O1)C1(CO1)c1ccccc1C2=O` (stereo not given), the Activity (Toxocara canis [9]) was 100%.
With `CC1(C)CCC2=C(O1)C1(CO1)c1ccccc1C2=O` (stereo not given) the Activity (Toxocara canis [9]) was 100% and the Activity (Toxocara canis [10]) was 100%.
`O=C(Nc1ccc(N=C=S)cc1Cl)c1cc(Br)cc(Br)c1O` gave an Activity (Toxocara canis [11]) of 100%, an Activity (Toxocara cati [12]) of 100% and an Activity (Toxocara cati [13]) of 100%.
In the case of `O=C1C(Cl)=C(Cl)C2(CO2)c2ccccc21` (stereo not given), the Activity (Toxocara canis [9]) was 100%.
For `CCCSc1ccc2[nH]c(NC(=O)OC)nc2c1` [ALBENDAZOLE], the Activity (Toxocara canis [14]) was 37.5%, the Activity (Toxocara canis [15]) was 54.2% and the Activity (Toxocara canis [4]) was 70%. It also gave an Activity (Toxocara canis [5]) of 92.2%, an Activity (Toxocara canis [16]) of 66.1% and an Activity (Toxocara canis [17]) of 100%.
